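1) Cells in 96-well plates. 2) Compound, 48 h, 5 concentrations. 3) Linear interpolation between surrounding doses. 4) Unreached endpoint = highest concentration. GI50 is the concentration that inhibits growth by half.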 Activity calls are given as the source filed them. Rule as the data show it: active = GI50 up to about 1.1 µM and inactive = higher.
Legend:
Test in all cases: NCI-60 cell line screen, 48 h
CAKI-1 = test system: CAKI-1
HCC 2998 = test system: HCC 2998
HCT-15 = test system: HCT-15
HL-60 = test system: HL-60
HT-29 = test system: HT-29
LOX IMVI = test system: LOX IMVI
Malme-3M = test system: Malme-3M
NCI-H23 = test system: NCI-H23
NCI/ADR-RES = test system: NCI/ADR-RES
OVCAR-5 = test system: OVCAR-5
SF-268 = test system: SF-268
SF-539 = test system: SF-539
SK-MEL-28 = test system: SK-MEL-28
SK-MEL-2 = test system: SK-MEL-2
SNB-75 = test system: SNB-75
SW-620 = test system: SW-620
UACC-257 = test system: UACC-257
UO-31 = test system: UO-31
A498 = test system: A498
M14 = test system: M14

| Compound | GI50 (CAKI-1) | GI50 (HCC 2998) | GI50 (HCT-15) | GI50 (HL-60) | GI50 (HT-29) | GI50 (LOX IMVI) | GI50 (Malme-3M) | GI50 (NCI-H23) | GI50 (NCI/ADR-RES) | GI50 (OVCAR-5) | GI50 (SF-268) | GI50 (SF-539) | GI50 (SK-MEL-28) | GI50 (SK-MEL-2) | GI50 (SNB-75) | GI50 (SW-620) | GI50 (UACC-257) | GI50 (UO-31) | GI50 (A498) | GI50 (M14) |
| --- | --- | --- | --- | --- | --- | --- | --- | --- | --- | --- | --- | --- | --- | --- | --- | --- | --- | --- | --- | --- |
| Nc1nc(=O)c2c([nH]1)NCC(CNc1ccc(C(=O)N[C@@H](CCC(=O)O)C(=O)O)cc1)N2C=O (stereo not given in full) [LEUCOVORIN CALCIUM] | 102 µM (inactive) | > 125 µM (inactive) | > 125 µM | 39.5 µM (inactive) | > 125 µM (inactive) | > 125 µM (inactive) | > 125 µM (inactive) | > 125 µM (inactive) | > 125 µM (inactive) | > 95.3 µM (inactive) | > 125 µM (inactive) | > 125 µM (inactive) | > 125 µM (inactive) | 40.4 µM (inactive) | > 125 µM (inactive) | > 125 µM (inactive) | > 125 µM (inactive) | > 125 µM (inactive) |  |  |
| N#Cc1c(N)nc(Nc2cccc3ccccc23)c(C#N)c1C#N | 6.25 µM (inactive) | 8.43 µM (inactive) | 4.17 µM | 1.88 µM (inactive) | 6.11 µM (inactive) | 2.53 µM (inactive) | > 10 µM (inactive) | 3.61 µM (inactive) | 2.71 µM (inactive) | > 10 µM (inactive) | 3.68 µM (inactive) | 2.78 µM (inactive) | 3.75 µM (inactive) | > 10 µM (inactive) | 3.52 µM (inactive) | 3.48 µM (inactive) |  | 3.82 µM (inactive) | 3.5 µM (inactive) | 6.61 µM (inactive) |
| CC(C)OP(=O)(OC(C)C)/C(=N/Nc1ccc([N+](=O)[O-])cc1)Nc1ccc(N/C(=N\Nc2ccc([N+](=O)[O-])cc2)P(=O)(OC(C)C)OC(C)C)cc1 | 32.8 µM (inactive) | 2.65 µM (inactive) | 6.21 µM | 20.9 µM (inactive) |  | 12.8 µM (inactive) | > 100 µM (inactive) | 13.7 µM (inactive) |  | 71.8 µM (inactive) | > 100 µM (inactive) | 57.3 µM (inactive) | > 100 µM (inactive) | 48 µM (inactive) | 14.2 µM (inactive) |  | 37.2 µM (inactive) | 21.4 µM (inactive) | 16.4 µM (inactive) | 14.5 µM (inactive) |
| NC(=O)SCC(=O)Nc1ccc2ncccc2c1 | > 100 µM (inactive) | > 100 µM (inactive) | 55.1 µM | > 100 µM (inactive) | > 100 µM (inactive) | 31.6 µM (inactive) | 56.1 µM (inactive) | > 100 µM (inactive) | > 100 µM (inactive) | > 100 µM (inactive) | 49.1 µM (inactive) | 28.1 µM (inactive) | > 100 µM (inactive) | 46.8 µM (inactive) |  | > 100 µM (inactive) | 71.3 µM (inactive) | > 100 µM (inactive) | > 100 µM (inactive) | > 100 µM (inactive) |
| O=S(=O)(N=S(c1ccccc1)c1ccccc1)c1ccccc1 |  |  | > 100 µM | > 100 µM (inactive) | > 100 µM (inactive) |  | > 100 µM (inactive) | > 100 µM (inactive) | > 100 µM (inactive) | > 100 µM (inactive) | > 100 µM (inactive) | > 100 µM (inactive) | > 100 µM (inactive) |  |  | > 100 µM (inactive) | > 100 µM (inactive) | > 100 µM (inactive) | 78.9 µM (inactive) | > 100 µM (inactive) |
| CC(=O)C1=C(C)NC(=C(C#N)C#N)C(C#N)=C1 | > 100 µM (inactive) | > 100 µM (inactive) | > 100 µM | > 100 µM (inactive) | > 100 µM (inactive) | > 100 µM (inactive) | > 100 µM (inactive) | > 100 µM (inactive) | > 100 µM (inactive) | > 100 µM (inactive) | > 100 µM (inactive) | > 100 µM (inactive) | > 100 µM (inactive) | > 100 µM (inactive) | > 100 µM (inactive) | > 100 µM (inactive) |  | > 100 µM (inactive) | > 100 µM (inactive) | > 100 µM (inactive) |
| Nc1ncnc2c1cnn2Cc1ccc(Cl)cc1 |  | > 100 µM (inactive) | > 100 µM | > 100 µM (inactive) | > 100 µM (inactive) | > 100 µM (inactive) |  | > 100 µM (inactive) | 83 µM (inactive) |  | > 100 µM (inactive) |  |  |  | 48.4 µM (inactive) | > 100 µM (inactive) | > 100 µM (inactive) | 78.5 µM (inactive) | 0.445 µM (active) | > 100 µM (inactive) |
| NC(CCCCO)C(=O)O (stereo not given) | > 100 µM (inactive) | > 100 µM (inactive) | > 100 µM | > 100 µM (inactive) | > 100 µM (inactive) | > 100 µM (inactive) | > 100 µM (inactive) | > 100 µM (inactive) | > 100 µM (inactive) | > 100 µM (inactive) | > 100 µM (inactive) |  | > 100 µM (inactive) | > 100 µM (inactive) | > 100 µM (inactive) | > 100 µM (inactive) | > 100 µM (inactive) | > 100 µM (inactive) | > 100 µM (inactive) | > 100 µM (inactive) |
